Experiments:
[1] = Accelerated stability in liquid medium (125 mM in 96/4 DMSO/methanol, ambient temperature), HPLC purity; type: physicochemical; conditions: 22° C., at 10 days
Method: For this purpose, an accelerated stability study is carried out under extreme conditions, in which the compounds are stored at 125 mM in a 96/4 DMSO/methanol mixture at ambient temperature (22° C.+/−1° C.). Note that these are extreme storage conditions.
The three compounds meta nitro DKB, para nitro DKB, and BBP, which are clearly shown in FIG. 10, are dissolved at 125 mM in a 96/4 DMSO/methanol mixture and are stored at ambient temperature (22° C. plus or minus 1° C.). At regular intervals subsequently, 2 μl of these solutions are injected in HPLC (basic method, Waters HPLC system) in order to measure the degradation of the principal product by integrating all of the peaks in the chromatogram (PDA Max Plot in the Empower 2 software).

[2] = type: physicochemical
Method: The three compounds meta nitro DKB, para nitro DKB, and BBP are dissolved at 250 mM in a Tris HCl 10 mM, pH 7.5, and 10% Trehalose solution. The solutions are lyophilized overnight in aliquots of 50 nmol. The dry products are then stored at 4° C. At regular intervals these aliquots are dissolved in methanol and 15 μl of these solutions are injected in HPLC (Waters) in order to measure the degradation of the principal product by integration of all of the peaks in the chromatogram (PDA Max Plot in the Empower software).

[Bio-EG3]2-PDAM [BBP]
purity of the initial compound (HPLC) [1]: < 10% | stability in dry form [2]: does not withstand lyophilization | breakdown during lyophilization ([2]; Tris HCl 10 mM pH 7.5, 10% Trehalose, lyophilized overnight): > 60%

Source: US20100136538A1, “MARKING REAGENTS BEARING DIAZO AND NITRO FUNCTIONS, METHODS FOR THE SYNTHESIS OF SUCH REAGENTS AND METHODS FOR DETECTING BIOLOGICAL MOLECULES” (Biomerieux, priority 2007, published 2010)
